Measurements: a melting point compilation (Tetko et al.)

Conditions: a range is the spread between reports

melting point [°C]	Structure (SMILES)
-63.1 to -63	C=Cc1ccccc1Cl
216 to 220	Nc1ccncc1N
112 to 113	CCc1ccc(C(=O)O)cc1
138 to 142	CC(=O)NC(=O)CN
41 to 43	Cc1cccc(N)n1
143 to 144	Nc1cc([N+](=O)[O-])ccc1O
74 to 75	CCCOC(=O)c1ccc(N)cc1
-34 to -33.7	CCCCC(=O)O
74 to 75	O=C1OCc2ccccc21
316 to 317	Cc1c[nH]c(=O)[nH]c1=O
36 to 38	C=C(CC(=O)OC)C(=O)OC
128 to 129	CCCCNC(=O)NS(=O)(=O)c1ccc(C)cc1
218 to 220	c1ccc(-c2ccnc3c2ccc2c(-c4ccccc4)ccnc23)cc1
-5 to -2	CCCCCCCCC(C)O (centres undefined)
-124	C/C=C/CC(C)C
138 to 139	Cc1ccc(S(N)(=O)=O)cc1
-95 to -92	CCCOC(C)=O
25 to 26	COc1ccc(Br)c(OC)c1
155	NC(=O)c1cccc(Br)c1
2 to 2.1	CC(C)OC(=O)C=CC(=O)OC(C)C
42 to 43	O=[N+]([O-])c1ccccc1Br
-40 to -39	CCC(=O)CC
315 to 320	O=C1OC2(c3ccc(O)cc3Oc3cc(O)ccc32)c2ccccc21

melting point [°C]	Structure (SMILES)
85 to 86	Clc1cc(Cl)c(Cl)c(Cl)c1Cl
-43.5 to -43	C=C[Si]1(C)O[Si](C)(C=C)O[Si](C)(C=C)O[Si](C)(C=C)O1 (centres undefined)
167 to 172	Cc1cc(NS(=O)(=O)c2ccc(N)cc2)no1
152 to 154	Cc1cc(C)c(C(=O)O)c(C)c1
101 to 102	Nc1ccccc1N
95 to 97	CCCCNC(N)=O
158	CC1(O)CCC(C(C)(C)O)CC1 (centres undefined)
28 to 29	Cc1ccc(Cc2ccc(C)cc2)cc1
25 to 28.5	Cc1ccc(Br)cc1
42 to 43	O=C(Oc1ccccc1)c1ccccc1O
-104	CCC#CCCCC
61 to 62	c1ccc(Nc2cccc3ccccc23)cc1
225 to 228	O=C(O)c1ccc(-c2ccccc2)cc1
21 to 22	O=CN1CCOCC1
66 to 67	Clc1cccnc1Cl
143 to 144	COc1cc(CC(=O)O)ccc1O
53 to 56.5	O=C(Cl)C(c1ccccc1)c1ccccc1
-36 to -35	Cc1cccc(C)c1Cl
1 to 1.5	CC12CCC(CC1)C(C)(C)O2
158 to 160	c1ccc2cc3c(ccc4ccccc43)cc2c1
128 to 129	C=CC(=O)NC(C)(C)C
51 to 52	O=S(=O)(Cl)c1ccc(Cl)cc1
127	O=C(O)CCCC(=O)c1ccccc1

melting point [°C]	Structure (SMILES)
-86 to -85.6	CCCSSCCC
102 to 103	NNS(=O)(=O)c1ccccc1
24 to 28	ClCCOc1ccccc1
62.8 to 64	COc1ccc(CC#N)cc1OC
-30 to -29.7	CCCCCCCCCC
-13 to -9	Fc1cccc2ccccc12
31.5 to 32	Cc1ccc(C(C)C)cc2c(C)ccc1-2
72 to 73	Cc1cc(C)c(O)c(C)c1
44.5 to 48	Oc1ccc(F)cc1
82 to 83	O=[N+]([O-])c1c(O)cccc1O
205 to 206	Cc1c(C(=O)O)cc([N+](=O)[O-])cc1[N+](=O)[O-]
234 to 235	Cc1cc(O)c2ccccc2n1
81.3 to 83	OCCCCCCCCCCCCO
85 to 87	OCc1ccccc1O
138 to 139	O=C(O)c1ccsc1
224 to 225	Cc1nnc(N)s1
104	CC(=O)NCCCCCC(=O)O
-81 to -80	CC(C)COC(=O)C(C)C
50 to 52.5	COc1ccc(N)cc1Cl
14 to 14.5	CC(C)c1ccc2ccccc2c1
-49 to -45	C1CCOCC1
-31.3 to -31	CCCCCCCCCCCl
168 to 169	Cc1cc(C)c(CC(=O)O)c(C)c1

melting point [°C]	Structure (SMILES)
226 to 228	O=C(O)c1cc(Br)cc(Br)c1O
30 to 33	Oc1cccc(Br)c1
34 to 34.5	CCOC(=O)c1ccco1
127 to 129	O=C(O)c1ccccc1C(=O)c1ccccc1
170 to 172	O=c1c(O)c(-c2ccccc2)oc2ccccc12
-7.4 to -7	CC(C)c1cc(C(C)C)cc(C(C)C)c1
-84 to -83.6	CCOC(C)=O
95 to 98	c1ccc(OCCOc2ccccc2)cc1
20 to 20.7	CCOc1ccccc1C(=O)O
159 to 160	Cc1ncc([N+](=O)[O-])n1CCO
78 to 80	OCC(O)COc1ccc(Cl)cc1 (centres undefined)
11.8 to 12	C1COCCO1
274 to 276	O=c1cn[nH]c(=O)[nH]1
181 to 183	CC(=O)Nc1c(C)cccc1C
-25 to -23.2	FC(F)(F)C(F)(F)C(F)(F)C(F)(F)C(F)(F)C(F)(F)C(F)(F)C(F)(F)F
76 to 78	OCc1ccc(Br)cc1
21 to 22	CCCCCCCCCCCCCCCCC
177 to 178	Cc1ccc(C(=O)O)c(O)c1
103 to 106	CCOC(=O)c1c[nH]nc1N
99 to 101	COc1ccccc1C(=O)O
27 to 27.6	O=S1(=O)CCCC1
95 to 96	C=Cc1cccc(C(=O)O)c1
28 to 30.5	Clc1sc(Cl)c(Cl)c1Cl

Structure (SMILES)	melting point [°C]
Brc1ccc(Oc2ccc(Br)cc2)cc1	58 to 60.5
O=[N+]([O-])c1cc(C(F)(F)F)ccc1Cl	-3 to -2.5
S=C=Nc1ccc(Cl)cc1	45 to 46
COS(=O)(=O)OC	-32 to -27
CCNc1nc(NC(C)(C)C)nc(SC)n1	104 to 105
CCN(CC)c1ccccc1	-38.8 to -38
Cc1ccc([N+](=O)[O-])c(C)c1	6 to 9
C=CC(=O)OCC	-71.2 to -71
COc1ccc(C=O)cc1OC	43 to 44
O=[N+]([O-])c1ccccc1F	-8 to -6
CCOCC	-116
O=[N+]([O-])c1cccc2cccc([N+](=O)[O-])c12	172 to 173
Cc1ccccc1C	-25.2 to -25
O=c1[nH]c2ccccc2o1	138 to 140
Clc1ccc(-c2ccccc2)cc1	78 to 78.8
Nc1cccc2ccccc12	48 to 49.2
NNC(=O)c1ccc(N)cc1	226 to 228
NCCc1c[nH]c2ccccc12	114 to 118
Oc1ccc(Cl)cc1Cc1ccccc1	48 to 48.5
COC(N)=O	54 to 55
O=S(=O)(Cl)c1cccs1	28 to 30
O=[N+]([O-])c1ccc(Cl)c(Cl)c1Cl	55 to 56
CCNc1nc(Cl)nc(NCC)n1	226 to 228
Cc1cc([N+](=O)[O-])ccc1N	132 to 134
O=C(O)CI	81 to 82.5
Oc1ccc(C(c2ccc(O)cc2)(C(F)(F)F)C(F)(F)F)cc1	160 to 162
O=Cc1ccc2c(c1)OCO2	36 to 37
